Results taken from paper PMC8850458, “The AUTOTAC chemical biology platform for targeted protein degradation via the autophagy-lysosome system” (Nature Communications, 2022).
Several values for one entry are separate records, joined by “and”; a condition that tells them apart may be missing. Identical values can stand only once.

Assays:
VCaP cells = system: VCaP cells; set-up: method as in printed; conditions: reviewer comment, ref not given; cited from earlier work
p62 = target: T1, p62 (Homo sapiens, UniProt Q13501); assay: In vitro pulldown assay with biotinylated p62 ligands; format: binding; conditions: biotinylated ligand, HEK293T extracts
T1 construct: expressed in transfected cells; host or cells: HEK293T, transient; whole lysate used
Method: (§1) A set of synthetic 12-mer peptides corresponding to the N-terminal sequences of the V-BiP (V[19]-[…]-biotin) and V-RGS4 (V^2-[…]-biotin) was C-terminally biotin-conjugated. Alternatively, biotinylated versions of YOK-1304, YT-8-8, YTK-1105, YOK-2204, and PBA were synthesized. To cross-link the above peptides with resin beads, biotin-conjugated peptides, and small molecule were mixed with high-capacity streptavidin agarose resin (Thermo Fisher Scientific) at a ratio of 0.5 mg of peptide per 1 mL of settled resin and incubated on a rotator at 4 °C overnight. After washing five times with PBS, the peptide/small molecule-bead conjugates were diluted with PBS at a 1:1 ratio. To prepare protein extracts, cells were collected by centrifugation and lysed by freezing and thawing at least 10 times in hypotonic buffer [10 mM KCl, 1.5 mM MgCl2, and 10 mM HEPES (pH 7.9)] with a protease inhibitor mix (Sigma). After centrifugation at 15,000 rpm 4 °C for 15 min, proteins were quantified using a BCA protein assay kit (Thermo Fisher Scientific). Total protein (200 μg) diluted in 300 μL of binding buffer [0.05% Tween-20, 10% glycerol, 0.2 M KCl, and 20 mM HEPES (pH 7.9)] were mixed with 50 μL of peptide/small molecule-bead resin and incubated at 4 °C for 2 h on a rotator. The protein-bound beads were collected by centrifugation at 2400 × g for 3 min and washed five times with binding buffer. The beads were resuspended in 25 μL of SDS sample buffer, heated at 95 °C for 5 min, and subjected to SDS/PAGE and immunoblotting.

NBR1 = target: T2, NBR1 (Homo sapiens, UniProt Q14596); assay: Competition pulldown assay with biotinylated YOK-2204 (NBR1); format: binding; conditions: HEK293T
T2 construct: pulldown assay in HEK293T cells using biotinylated YOK-2204; endogenous in cells; host or cells: HEK293T cell extract
Method: as §1, with “The beads were resuspended in 25 μL of SDS sample buffer, heated at 95 °C for 5 min, and subjected to SDS/PAGE and immunoblotting.” left out

mutant p62^D129A = target: T3, mutant p62^D129A (Homo sapiens, UniProt Q13501, D129A); assay: Pulldown assay with biotinylated YOK-2204, wild-type or D129A p62-myc; format: binding; conditions: HEK293T
T3 construct: expressed in transfected cells; host or cells: HEK293T, transient; cell extract used
Method: as §1, with “The beads were resuspended in 25 μL of SDS sample buffer, heated at 95 °C for 5 min, and subjected to SDS/PAGE and immunoblotting.” left out

[1] = system: p62 and LC3 punctate structures; assay: ICC of p62 and LC3 puncta formation and co-localization in HeLa cells; format: cell-based; conditions: 2.5 μM, 24 h
Method: Cells were cultured on coverslips coated with poly-L-lysine (Sigma) to observe cellular localization of proteins. Using 4% paraformaldehyde in PBS (pH 7.4), the cells were fixed for 15 min at room temperature and washed three times for 5 min with PBS. After fixing, the cells were permeabilized with 0.5% Triton X-100 in PBS solution for 15 min and washed three times with PBS for 5 min. The cells were blocked containing 2% BSA in PBS solution for 1 h at room temperature. Subsequently, the cells were incubated with primary antibody diluted in 2% BSA/PBS solution overnight at 4 °C, followed by washing the cells three times for 10 min with PBS and incubated with Alexa Fluor-conjugated secondary antibody diluted in 2% BSA/PBS for 30 min at room temperature. Using a DAPI-containing mounting medium (Vector Laboratories), the coverslips were mounted on glass slides. Confocal images were taken by laser scanning confocal microscope 510 Meta (Zeiss) and analyzed by Zeiss LSM Image Browser (ver. 4.2.0.121). […] Quantification results are shown as mean ± S.D. or S.E.M. of three independent experiments

[2] = WST-based cell viability assay in LNCaP cells; conditions: human, LNCaP cells
LNCaP cells = assay: WST-based cell viability assay in LNCaP cells; conditions: LNcaP, duplicates
[3] = WST assay viability relative to con = 100, LNcaP, duplicates
[4] = WST assay viability, AVG %, LNcaP

T2 sequence (Q14596 whole entry): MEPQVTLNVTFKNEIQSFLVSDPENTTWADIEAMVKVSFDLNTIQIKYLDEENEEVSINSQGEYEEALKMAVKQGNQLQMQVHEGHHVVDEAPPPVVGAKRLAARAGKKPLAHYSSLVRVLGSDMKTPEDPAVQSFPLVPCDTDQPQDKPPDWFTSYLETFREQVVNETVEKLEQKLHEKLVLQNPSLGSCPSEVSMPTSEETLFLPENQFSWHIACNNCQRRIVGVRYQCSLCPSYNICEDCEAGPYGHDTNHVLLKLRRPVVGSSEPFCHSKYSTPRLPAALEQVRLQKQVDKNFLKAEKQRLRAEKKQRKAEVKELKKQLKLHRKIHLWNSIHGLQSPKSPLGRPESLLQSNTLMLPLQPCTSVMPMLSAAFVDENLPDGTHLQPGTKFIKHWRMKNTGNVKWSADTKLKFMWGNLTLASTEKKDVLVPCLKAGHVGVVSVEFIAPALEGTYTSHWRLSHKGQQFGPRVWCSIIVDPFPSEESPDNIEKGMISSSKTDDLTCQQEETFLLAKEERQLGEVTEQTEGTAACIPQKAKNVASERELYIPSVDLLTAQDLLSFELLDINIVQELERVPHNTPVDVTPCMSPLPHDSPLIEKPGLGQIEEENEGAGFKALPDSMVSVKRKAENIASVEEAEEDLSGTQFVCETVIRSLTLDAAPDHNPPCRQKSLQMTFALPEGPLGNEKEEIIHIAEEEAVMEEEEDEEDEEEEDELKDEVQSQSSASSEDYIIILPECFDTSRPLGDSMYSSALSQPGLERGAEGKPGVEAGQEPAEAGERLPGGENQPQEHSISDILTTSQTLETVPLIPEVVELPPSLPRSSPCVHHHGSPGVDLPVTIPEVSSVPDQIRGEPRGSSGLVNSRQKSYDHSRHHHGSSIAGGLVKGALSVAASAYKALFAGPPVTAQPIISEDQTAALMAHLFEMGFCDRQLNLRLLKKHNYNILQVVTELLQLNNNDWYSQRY

## N#Cc1ccc(O[C@H]2CC[C@H](NC(=O)c3ccc(N4CCC(CN5CCN(c6cc7c(cc6F)C(=O)N(C6CCC(=O)NC6=O)C7=O)CC5)CC4)nn3)CC2)cc1Cl (stereo partly shown) [ARV-110]
VCaP cells
  IC50, proliferation assay: low nM range

## CC(C)NCC(O)COc1ccc(OCCc2ccccc2)c(OCCc2ccccc2)c1 (stereo not shown) [YOK-2204]
p62
  binding of p62 in pulldown: bound
NBR1
  interaction with NBR1: not NBR1
Mutant p62^D129A
  interaction with mutant p62^D129A: severely crippled
[1]
  LC3 puncta formation, AVG of cells of 50: 44.6667
  LC3 puncta formation, percentage AVG: 89.3333%
  p62-LC3 colocalization, AVG of cells of 50: 37
  p62-LC3 colocalization, percentage AVG: 74%
  p62 puncta formation, AVG of cells of 50: 40.3333
  p62 puncta formation, percentage AVG: 80.6667%
[1]; single experiments
  LC3 puncta formation, cells of 50 cells counted: 47 and 46 and 41
  p62-LC3 colocalization, cells of 50 cells counted: 43 and 37 and 31
  p62 puncta formation, cells of 50 cells counted: 43 and 37 and 41
[2]; [3]
  viability at 0.01 µM: 109%
  viability at 0.1 µM: 105%
  viability at 1 µM: 105%
  viability at 10 µM: 110%
  viability at 50 µM: 123%
  viability at 100 µM: 128%
[2]; [4]
  viability at 0.01 µM: 101%
  viability at 0.1 µM: 98.5%
  viability at 1 µM: 99.3%
  viability at 10 µM: 104%
  viability at 50 µM: 115%
  viability at 100 µM: 129%
LNCaP cells; 0.01uM
  WST assay raw reading: 2.286 and 1.976
  WST assay viability relative to con = 100: 93.5242
LNCaP cells; 0.1uM
  WST assay raw reading: 2.213 and 1.938
  WST assay viability relative to con = 100: 91.6264
LNCaP cells; 1uM
  WST assay raw reading: 2.21 and 1.972
  WST assay viability relative to con = 100: 93.3245
LNCaP cells; 10uM
  WST assay raw reading: 2.305 and 2.064
  WST assay viability relative to con = 100: 97.9191
LNCaP cells; 50uM
  WST assay raw reading: 2.575 and 2.249
  WST assay viability relative to con = 100: 107.158
LNCaP cells; 100uM
  WST assay raw reading: 2.662 and 2.714
  WST assay viability relative to con = 100: 130.381
